This is an account of results in US20260265265A1, “NOVEL BENZIMIDAZOLONE DERIVATIVE COMPOUND AS AUTOTAXIN INHIBITOR” (LG CHEM, LTD., priority 2023, published 2026).

A value given as a limit tells only on which side of the number the result lay.

The target of this experiment is T1, Recombinant Human ENPP-2/Autotaxin (Homo sapiens, UniProt Q13822).
T1 construct: purchased R&D systems 5255-EN
Kind of experiment: LysoPLD activity measurement (autotaxin enzyme inhibition, choline release, TOOS reagent). Particulars: LysoPLD inhibitory activity; substrate 14:0 LysoPC; absorbance at 555 nm. The class given is biochemical. The essentials:
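Autotaxin lysoPLD activity was read as choline released from 14:0 LysoPC, detected by TOOS reagent absorbance. Compound was preincubated 30 min, then substrate diluted to 300 μM was added and the reaction ran 90 minutes at 37° C. Controls contained 1% DMSO.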
With `O=C(O)c1cccc(C2(n3c(=O)n(-c4ccc(N5CC6(CCOCC6)C5)cc4)c4cc(Cl)ccc43)CC2)c1` [Example 148, 3-(1-(3-(4-(7-oxa-2-azaspiro[3.5]nonane-2-yl)phenyl)-5-chloro-2-oxo-2,3-dihydro-1H-benzo[d]imidazol-1-yl)cyclopropyl)benzoic acid], the IC50 was < 10 nM.

Take `O=C(O)c1cccc(C2(n3c(=O)n(-c4ccc(N5CC6(COC6)C5)cc4)c4cc(Cl)ccc43)CC2)c1` [Example 149, 3-(1-(3-(4-(2-oxa-6-azaspiro[3.3]heptane-6-yl)phenyl)-5-chloro-2-oxo-2,3-dihydro-1H-benzo[d]imidazol-1-yl)cyclopropyl)benzoic acid]: the IC50 is < 10 nM.

Regarding `O=C(O)c1cccc(Cn2c(=O)n(-c3ccc(C4CCN(C(=O)C5CC5)CC4)cc3)c3c(F)c(Cl)ccc32)c1F` [Example 150, 3-((5-chloro-3-(4-(1-(cyclopropanecarbonyl)piperidin-4-yl)phenyl)-4-fluoro-2-oxo-2,3-dihydro-1H-benzo[d]imidazol-1-yl)methyl)-2-fluorobenzoic acid], the IC50 fell in the range of 10 to 100 nM.

As to `CCC(=O)N1CCC(c2ccc(-n3c(=O)n(Cc4cccc(C(=O)O)c4F)c4ccc(Cl)c(F)c43)cc2)CC1` [Example 151, 3-((5-chloro-4-fluoro-2-oxo-3-(4-(1-propionylpiperidin-4-yl)phenyl)-2,3-dihydro-1H-benzo[d]imidazol-1-yl)methyl)-2-fluorobenzoic acid], the IC50 was 10 to 100 nM.

For `O=C(O)c1cccc(Cn2c(=O)n(-c3ccc(C4CCN(C(=O)C5CCC5)CC4)cc3)c3c(F)c(Cl)ccc32)c1F` [Example 152, 3-((5-chloro-3-(4-(1-(cyclobutanecarbonyl)piperidin-4-yl)phenyl)-4-fluoro-2-oxo-2,3-dihydro-1H-benzo[d]imidazol-1-yl)methyl)-2-fluorobenzoic acid], the IC50 fell in the range of 10 to 100 nM.

For the molecule `CN(C)c1ccc(-n2c(=O)n(C(C)(C)c3cccc(C(=O)O)c3)c3ccc(Cl)cc32)cc1` [Example 153, 3-(2-(5-chloro-3-(4-(dimethylamino)phenyl)-2-oxo-2,3-dihydro-1H-benzo[d]imidazol-1-yl)propane-2-yl)benzoic acid], the 50% inhibitory concentration (IC50) lay in the range of 10 to 100 nM.

`CC(C)(c1cccc(C(=O)O)c1)n1c(=O)n(-c2ccc(N3CC(O)C3)cc2)c2cc(Cl)ccc21` [Example 154, 3-(2-(5-chloro-3-(4-(3-hydroxyazetidin-1-yl)phenyl)-2-oxo-2,3-dihydro-1H-benzo[d]imidazol-1-yl)propane-2-yl)benzoic acid]: the IC50 was in the range of 10 to 100 nM.

As for `O=C(O)c1cccc(C2(n3c(=O)n(-c4ccc(C5CCOCC5)cc4)c4cc(Cl)ccc43)CCC2)c1` [Example 155, 3-(1-(5-chloro-2-oxo-3-(4-(tetrahydro-2H-pyran-4-yl)phenyl)-2,3-dihydro-1H-benzo[d]imidazol-1-yl)cyclobutyl)benzoic acid], the IC50 fell in the range of 10 to 100 nM.

In the case of `CN(C)c1ccc(-n2c(=O)n(C3(c4cccc(C(=O)O)c4)CCC3)c3ccc(Cl)cc32)cc1` [Example 156, 3-(1-(5-chloro-3-(4-(dimethylamino)phenyl)-2-oxo-2,3-dihydro-1H-benzo[d]imidazol-1-yl)cyclobutyl)benzoic acid], the half-maximal inhibitory concentration (IC50) is 10 to 100 nM.

As for `CN(C)C(=O)c1ccc(-n2c(=O)n(C3(c4cccc(C(=O)O)c4)CCC3)c3ccc(Cl)cc32)cc1` [Example 157, 3-(1-(5-chloro-3-(4-(dimethylcarbamoyl)phenyl)-2-oxo-2,3-dihydro-1H-benzo[d]imidazol-1-yl)cyclobutyl)benzoic acid], the IC50 is < 10 nM.

On to `CC(C)(c1cccc(C(=O)O)c1)n1c(=O)n(-c2ccc(C3CCOCC3)cc2)c2cc(Cl)ccc21` [Example 158, 3-(2-(5-chloro-2-oxo-3-(4-(tetrahydro-2H-pyran-4-yl)phenyl)-2,3-dihydro-1H-benzo[d]imidazol-1-yl)propan-2-yl)benzoic acid], for which the IC50 lay within 10 to 100 nM.

The term IC50 denotes the concentration that gives 50% inhibition.
